The values below come from US8519145B2, “Aryl compounds as PPAR ligands and their use” (Seoul National University Industry Foundation, priority 2006, dated 2013).

Assay [1] concerns the target T1, hPPARδ (Homo sapiens, UniProt Q03181).
T1 construct: Full length PPARs plasmid DNA; expressed in transfected cells; host or cells: CV-1 cells
T1 sequence (Q03181 1-441): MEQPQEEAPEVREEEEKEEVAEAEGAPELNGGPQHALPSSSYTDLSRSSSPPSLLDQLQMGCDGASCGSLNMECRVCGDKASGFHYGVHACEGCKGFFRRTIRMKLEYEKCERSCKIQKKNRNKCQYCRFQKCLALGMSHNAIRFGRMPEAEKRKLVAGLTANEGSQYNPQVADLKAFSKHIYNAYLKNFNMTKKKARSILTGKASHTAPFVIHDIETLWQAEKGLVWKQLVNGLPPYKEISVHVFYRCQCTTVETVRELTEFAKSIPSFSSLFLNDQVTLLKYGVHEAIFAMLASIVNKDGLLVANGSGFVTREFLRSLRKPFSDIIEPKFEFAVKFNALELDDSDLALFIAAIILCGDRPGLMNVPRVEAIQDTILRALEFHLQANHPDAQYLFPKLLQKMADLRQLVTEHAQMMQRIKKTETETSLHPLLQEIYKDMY
Nature of the assay: Transfection assay (luciferase reporter), PPARδ. The class given is cell-based. As to conditions: CV-1 cells, full length PPAR plasmid, 24 hours. The procedure: The PPARδ activity of the compound represented by formula (I) of the present invention was confirmed by transfection assay. In addition, the selectivity to PPAR subtypes, PPARα and PPARγ was examined. Cytotoxicity was tested by MTT assay and in vivo activity was investigated by animal experiment.
CV-1 cells were used in this assay. The cells were inoculated in a 96-well plate containing DMEM supplemented with 10% FBS, DBS (delipidated) and 1% penicillin/streptomycin and cultured in a 37° C., 5% CO2 incubator. The experiment was performed according to the steps of inoculation, transfection, sample treatment and confirmation. Particularly, CV-1 cells were inoculated in a 96 well-plate (5000 cells/well), followed by transfection 24 hours later. Full length PPARs plasmid DNA, reporter DNA confirming PPARs activity owing to its luciferase activity, β-galactosidase DNA providing information on transfection efficiency, and transfection reagent were used for the transfection. Samples were dissolved in dimethylsulfoxide (DMSO), which were treated to the cells via media at different concentrations. After culturing the cells in the incubator for 24 hours, the cells were lysed by using lysis buffer. Luciferase activity and β-galactosidase activity were measured with Luminometer and a microplate reader. The obtained values of luciferase were modified by the values of β-galactosidase. A graph was made with those values and EC50 was calculated.

Assay [2] in a line: GTT (glucose tolerance test), diabetes improving effect. Format: in vivo, mice. Conditions: 10 mg/Kg/day oral; for fasting blood glucose versus control: 57 days; for diabetes improving effect: GTT. The procedure: Diabetes Improving Effect
GTT (glucose tolerance test) was performed to confirm the diabetes improving effect of the compound of the present invention. Glucose (1.5 g/Kg) was intra-abdominally administered to the mice pre-treated orally with samples for 57 days. Blood glucose was measured every hour. Fasting blood glucose was lower in the S14, S46 and S106 (10 mg/Kg/day) treated groups than in control. […] In the meantime, the blood glucose level was not recovered to normal in the vehicle treated group even after 120 minutes.

The nature of assay [3]: Muscle endurance test (treadmill), treatment during pregnancy and/or lactation. Format: in vivo, mice. Conditions: 10 mg/Kg/day. The protocol:
Muscle Endurance Strengthening and Muscle Function Enhancing Effect
An animal test was performed to confirm muscle endurance strengthening and muscle function enhancing effect of the composition of the present invention. Most muscles are generated in developmental stage. Thus, S14, S46 and S106 (10 mg/Kg/day) were treated to pregnant mice in the period of either pregnancy or lactation or both pregnancy and lactation. Weight gaining and growth rate were not much different between fetuses of the control group and the treatment group. Muscles were observed after removing skin. As a result, muscles of the treatment group were red, unlike the control. ATPase staining and immunostaining were performed. As a result, type I muscle fiber was increased in the treatment group. The role of the changes of the muscle fiber in the enhancement of muscle endurance and muscle function was investigated by using treadmill test. As a result, running time was much extended in the treatment group, compared with the control.

Where [4] appears, read: treated in pregnancy + lactation.

For `Cc1cc(SC(Cc2ccccc2)c2ccc(-c3ccc(C(F)(F)F)cc3)nc2)ccc1OCC(=O)O` (stereo not drawn) [Compound 106], in assay [1], the EC50 was 3.2 nM. Moreover, in assay [2], the “fasting blood glucose versus control” value was “lower” and the diabetes improving effect entry is reported as “had diabetes improving effect”. In assay [3] (treated in lactation), the “increasing rate (treatment group/control group), length” value was 1.8 times and the “increasing rate (treatment group/control group), time” value turned out to be 1.8 times. For the same compound, in assay [3] (setting [4]), the “increasing rate (treatment group/control group), length” value was 3.4 times and the “increasing rate (treatment group/control group), time” value came out at 3.2 times. In addition, in assay [3] (treated in pregnancy), the “increasing rate (treatment group/control group), length” value turned out to be 2.2 times and the “increasing rate (treatment group/control group), time” value came to 2.1 times.

With `Cc1cc(SC(Cc2ccccc2)c2ccc(-c3cc(F)c(F)c(F)c3)cc2)ccc1OCC(=O)O` (stereo not drawn) [Compound 46], the midpoint of the response in assay [1], the EC50, lay at 3.7 nM. Besides, in assay [2], the “fasting blood glucose versus control” value is recorded as “lower” and the diabetes improving effect entry is given as “had diabetes improving effect”. In assay [3] (treated in lactation), the “increasing rate (treatment group/control group), length” value is reported as 1.5 times and the “increasing rate (treatment group/control group), time” value is on record as 1.5 times. In addition, in assay [3] (setting [4]), the “increasing rate (treatment group/control group), length” value came out at 3.0 times and the “increasing rate (treatment group/control group), time” value is reported as 2.8 times. Moreover, in assay [3] (treated in pregnancy), the “increasing rate (treatment group/control group), length” value was 1.9 times and the “increasing rate (treatment group/control group), time” value turned out to be 1.9 times.

On to `Cc1cc(SC(Cc2ccccc2)c2ccc(-c3ccc(C(F)(F)F)cc3)cc2)ccc1OCC(=O)O` (stereo not drawn) [Compound S14], for which the EC50 in assay [1] turned out to be 2.6 nM. Moreover, in assay [2], the “fasting blood glucose versus control” value is listed as “lower” and the diabetes improving effect result is recorded as “had diabetes improving effect”. Further, in assay [3] (treated in lactation), the “increasing rate (treatment group/control group), length” value turned out to be 2.2 times and the “increasing rate (treatment group/control group), time” value worked out at 2.1 times. Further, in assay [3] (setting [4]), the “increasing rate (treatment group/control group), length” value amounted to 3.9 times and the “increasing rate (treatment group/control group), time” value is 3.6 times. For the same compound, in assay [3] (treated in pregnancy), the “increasing rate (treatment group/control group), length” value came out at 2.5 times and the “increasing rate (treatment group/control group), time” value is listed as 2.4 times.
